Data from patent US8575188B2 (priority 2009, dated 2013).
Like-named read-outs stand apart in the source and are kept apart here.

Experiments:
[1] = system: bone marrow progenitor cells; experiment: Bone marrow progenitor cell clonogenic assay (CFU-GM), mouse; conditions: for IC50: read-out: Mouse CFU-GM (IC50 nM) THLD
Experimental: (§1) A clonogenic assay was performed using bone marrow progenitor cells derived from the blood of mice and humans.

[2] = system: bone marrow progenitor cells; experiment: Bone marrow progenitor cell clonogenic assay (CFU-GM), human; conditions: for IC50: read-out: Human CFU-GM (IC50 nM) THLD
Experimental: as §1

[3] = system: human non small cell lung cancer cell line H460; experiment: Antiproliferation (cytotoxicity) assay, 72 hrs under air, Alamar Blue; assay type: cell-based; conditions: H460, inhibition of proliferation, 72 hrs under air, read-out: IC50
[4] = system: Messa ovarian carcinoma cell line; experiment: Efflux pump drug resistance, antiproliferation assay, parent line; assay type: cell-based; conditions: Homo sapiens, MES-SA, air
Experimental: […] Cells were treated with test compounds at various concentrations under air for 72 hrs, and then cell viability and proliferation were assessed by Alamar Blue staining.
(§2) Cellular drug resistance was determined using the antiproliferation assay described above.

[5] = system: DX5, which over expresses the MDR 1 efflux pump; experiment: Efflux pump drug resistance, antiproliferation assay, MDR 1 over expressing line; assay type: cell-based; conditions: air
Experimental: (§3) The compounds were screened for cytotoxicity using human non small cell lung cancer cell line H460. […]
as §2

pcDNA = experiment: Efflux pump drug resistance, antiproliferation assay, parent line; assay type: cell-based; conditions: air
Experimental: as §3, §2

[6] = system: BCRP, which over expressed the breast cancer resistance protein; experiment: Efflux pump drug resistance, antiproliferation assay, BCRP over expressing line; conditions: for 3d BCRP/pcDNA: 3 days
Experimental: as §3, §2

[7] = system: H69 small cell lung cancer line; experiment: Efflux pump drug resistance, antiproliferation assay, parent line; assay type: cell-based; conditions: air
Experimental: as §3, §2

[8] = system: MRP1 over expressing H69AR line; experiment: Efflux pump drug resistance, antiproliferation assay, MRP1 over expressing line; assay type: cell-based; conditions: Homo sapiens, air
Experimental: as §3, §2

[9] = Bone marrow progenitor cell clonogenic assay (CFU-GM), mouse; conditions: mouse
Experimental: as §1

[10] = Bone marrow progenitor cell clonogenic assay (CFU-GM), human; conditions: human
Experimental: as §1

[11] = In vivo pharmacokinetics, oral gavage
Experimental: The data normalized to a 50 mg/kg dose are shown below (compounds were dosed at either 25 or 50 mg/kg).

[12] = system: human non small cell lung cancer H-460; experiment: Xenograft model, subcutaneous, tumor growth inhibition and body weight loss; conditions: for TGI (%): H460, PO, QD × 5/wk, 2 weeks; for Max. BWL (%): mouse, in vivo, po
Experimental: (§4) The first three models were produced by subcutaneous implantation of the appropriate number of cells into the flank of the animals. When tumor size was approximately 150 mm^3, animals were randomized into groups of 10 mice each for dosing. One arm was dosed with only vehicle and the results used for the efficacy calculations. […] TGI=(1−T/C) %. T/C ratio was calculated as T/C=(Tn−Ti)/(Cn−Ci), where Tn is tumor volume in treatment group on Day n, and Ti is the initial tumor volume in the treatment group. Cn is the tumor volume of the vehicle group on the last day of measurement. Ci is the initial tumor volume in the vehicle control group. Day n is the last measurement taken when all the animals in the vehicle group were not yet euthanized. Animals were euthanized when tumor volumes grew larger than 2000 mm^3.

[13] = system: human prostate cancer PC-3; experiment: as above; conditions: for TGI (%): PC3, PO, QD × 5/wk, 2 weeks, 40 mg/Kg; for Max. BWL (%): mouse, in vivo, po, 40 mg/kg
Experimental: as §4

human colon cancer HT-29 = experiment: as above; conditions: for TGI (%): HT29, PO, QD × 5/wk, 2 weeks; for Max. BWL (%): mouse, in vivo, po
Experimental: as §4

[14] = 72 h, 3 days, read-out: Air 3d MESSA prol. IC50
[15] = MDR1, 72 h, 3 days, read-out: Air 3d DX5 prol. IC50
[16] = 72 h, 3 days, read-out: Air 3d pcDNA prol. IC50
[17] = 72 h, read-out: Air 3d BCRP prol. IC50 nM, air, 3 days
[18] = ratio of IC50s, BCRP over expressing versus parent line
[19] = 120 h, 5 days, read-out: Air 5d MESSA prol. IC50
[20] = MDR1, 120 h, 5 days, read-out: Air 5d DX5 prol. IC50
[21] = 120 h, 5 days, read-out: Air 5d H69 prol. IC50
[22] = 120 h, 5 days, read-out: Air 5d H69ar (MRP1) prol. IC50
[23] = 72 h, 3 days, read-out: Air 3d H69 prol. IC50
[24] = 72 h, 3 days, read-out: Air 3d H69ar (MRP1) prol. IC50
[25] = CD, mouse, in vivo, po, 50 mg/kg

Structure (SMILES): CC[C@@]1(O)C(=O)OCc2c1cc1n(c2=O)Cc2cc3c(N)cccc3nc2-1 [9-amino camptothecin, reference compound]
- IC50 ([1]; mouse bone marrow progenitor cells, clonogenic assay): 90 nM
- IC90 ([1]; read-out: Mouse CFU-GM (IC90 nM) THLD, IC90, mouse bone marrow progenitor cells, clonogenic assay): 700 nM
- IC50 ([2]; human bone marrow progenitor cells, clonogenic assay): 1.2 nM
- IC90 ([2]; read-out: Human CFU-GM (IC90 nM) THLD, IC90, human bone marrow progenitor cells, clonogenic assay): 8 nM

Structure (SMILES): CC[C@@]1(O)C(=O)OCc2c1c([N+](=O)[O-])c1n(c2=O)Cc2c-1nc1ccccc1c2CO [TH1333]
- IC50 ([3]; Homo sapiens, NCI-H460): > 1000 nM
- IC50 [4, 14]: 15000 nM
- IC50 [5, 15]: 34000 nM
- IC50 (pcDNA; [16]): 3900 nM
- IC50 [6, 17]: 7800 nM
- 3d BCRP/pcDNA [6, 18]: 2

Structure (SMILES): CC[C@@]1(O)C(=O)OCc2c1c([N+](=O)[O-])c1n(c2=O)Cc2cc3ccccc3nc2-1 [TH1317]
- IC50 ([3]; Homo sapiens, NCI-H460): > 1000 nM
- IC50 [4, 19]: > 500 nM
- IC50 [5, 20]: > 500 nM
- IC50 [7, 21]: 933 nM
- IC50 (pcDNA; 120 h, 5 days, read-out: Air 5d pcDNA prol. IC50): 57 nM
- IC50 [8, 22]: 1320 nM
- IC50 ([6]; 120 h, read-out: Air 5d BCRP prol. IC50 nM, air, 5 days): 82 nM
- 5d BCRP/pcDNA ([6]; ratio of IC50s, BCRP over expressing versus parent line, 5 days): 1.4386

Structure (SMILES): CCc1c2c(nc3ccccc13)-c1c(NC=O)c3c(c(=O)n1C2)COC(=O)[C@]3(O)CC [TH1408]
- IC50 ([3]; Homo sapiens, NCI-H460): 66 nM
- IC50 [4, 14]: 81 nM
- IC50 [5, 15]: 40 nM
- IC50 [7, 23]: 242 nM
- IC50 (pcDNA; [16]): 9.5 nM
- IC50 [8, 24]: 285 nM
- IC50 [6, 17]: 7.3 nM
- 3d BCRP/pcDNA [6, 18]: 0.7684
- IC90 [9]: 5000 nM
- IC50 ([1]; Mus musculus, CFU-GM): 700 nM
- IC90 [10]: 650 nM
- IC50 ([2]; Homo sapiens, CFU-GM): 90 nM
- half-life ([11]; CD, mouse, in vivo, po): 48.3 min
- AUC [11, 25]: 8430 ng·h/mL
- Cmax [11, 25]: 6070 ng/mL

Structure (SMILES): CCCc1c2c(nc3ccccc13)-c1c([N+](=O)[O-])c3c(c(=O)n1C2)COC(=O)[C@]3(O)CC [TH1650]
- IC50 ([3]; Homo sapiens, NCI-H460): 685 nM
- TGI (%) ([12]; 40 mg/Kg): 85%
- Max. BWL (%) ([12]; 40 mg/kg): 6.7%

Structure (SMILES): CCCc1c2c(nc3ccccc13)-c1c(N)c3c(c(=O)n1C2)COC(=O)[C@]3(O)CC [TH1651]
- IC50 ([3]; Homo sapiens, NCI-H460): 6.2 nM
- TGI (%) ([12]; 40 mg/Kg): 80%
- Max. BWL (%) ([12]; 40 mg/kg): 5.5%
- TGI (%) [13]: 80%
- Max. BWL (%) [13]: 4.8%

Structure (SMILES): CC[C@@]1(O)C(=O)OCc2c1cc1n(c2=O)Cc2cc3ccccc3nc2-1 [Camptothecin, reference compound]
- IC50 [3]: 14 nM
- ratio BCRP over expressing line versus the parent cell line ([6]; ratio of IC50s, BCRP versus pcDNA): 1.6
- half-life ([11]; CD-mice, oral gavage): 119 min
- Cmax ([11]; CD-mice, oral gavage, 5% DMSO, 5% Tween 80 suspension in water, normalized to a 50 mg/kg dose): 374 ng/mL
- AUC ([11]; CD-mice, oral gavage, normalized to a 50 mg/kg dose): 968 ng·h/mL

Structure (SMILES): CC[C@@]1(O)C(=O)OCc2c1c(NC=O)c1n(c2=O)Cc2cc3ccccc3nc2-1 [TH1589]
- IC50 ([3]; Homo sapiens, NCI-H460): 59 nM
- IC90 [9]: 6200 nM
- IC50 ([1]; Mus musculus, CFU-GM): 920 nM
- IC90 [10]: 680 nM
- IC50 ([2]; Homo sapiens, CFU-GM): 110 nM
- TGI (%) ([12]; 30 mg/Kg): 76%
- Max. BWL (%) ([12]; 30 mg/kg): 10.4%
- TGI (%) [13]: 80%
- Max. BWL (%) [13]: 0.1%

Structure (SMILES): CC[C@@]1(O)C(=O)OCc2c1c([N+](=O)[O-])c1n(c2=O)Cc2c-1nc1ccccc1c2C [TH1446]
- IC50 ([3]; Homo sapiens, NCI-H460): 850 nM
- IC50 [4, 19]: 4450 nM
- IC50 [5, 20]: 4960 nM
- IC50 [7, 21]: 2740 nM
- IC50 (pcDNA; [16]): 574 nM
- IC50 [8, 22]: 8510 nM
- IC50 [6, 17]: 2740 nM
- 3d BCRP/pcDNA [6, 18]: 4.777
- TGI (%) (human colon cancer HT-29; 40 mg/Kg): 29.5%
- Max. BWL (%) (human colon cancer HT-29; 40 mg/kg): 1.1%
- half-life ([11]; CD, mouse, in vivo, po): 35.4 min
- AUC [11, 25]: 4280 ng·h/mL
- Cmax [11, 25]: 5100 ng/mL

Structure (SMILES): CC[C@@]1(O)C(=O)OCc2c1c(N)c1n(c2=O)Cc2c-1nc1ccccc1c2/C=N/OC(C)(C)C [TH1499]
- IC50 ([3]; Homo sapiens, NCI-H460): 19 nM
- IC50 [4, 14]: 9 nM
- IC50 [5, 15]: 5 nM
- IC50 [7, 23]: 217 nM
- IC50 (pcDNA; [16]): 3.2 nM
- IC50 [8, 24]: 463 nM
- IC50 [6, 17]: 3.4 nM
- 3d BCRP/pcDNA [6, 18]: 1.0625
- TGI (%) (human colon cancer HT-29; 25 mg/Kg): 4.7%
- Max. BWL (%) (human colon cancer HT-29; 25 mg/kg): 1.8%

Structure (SMILES): CC[C@@]1(O)C(=O)OCc2c1c(N)c1n(c2=O)Cc2cc3c(N)cccc3nc2-1 [TH1386]
- IC50 ([3]; Homo sapiens, NCI-H460): 71 nM
- IC50 [4, 14]: 52 nM
- IC50 [5, 15]: 28 nM
- IC50 [7, 23]: 141 nM
- IC50 (pcDNA; [16]): 5.6 nM
- IC50 [8, 24]: 195 nM
- IC50 [6, 17]: 26.6 nM
- 3d BCRP/pcDNA [6, 18]: 4.75
- IC90 [9]: 3500 nM
- IC50 ([1]; Mus musculus, CFU-GM): 680 nM
- IC90 [10]: 210 nM
- IC50 ([2]; Homo sapiens, CFU-GM): 30 nM
- half-life ([11]; CD, mouse, in vivo, po): 25.6 min
- AUC [11, 25]: 3100 ng·h/mL
- Cmax [11, 25]: 5860 ng/mL

Structure (SMILES): CC[C@@]1(O)C(=O)OCc2c1c([N+](=O)[O-])c1n(c2=O)Cc2c-1nc1ccccc1c2/C=N/N(CCO)C(=O)c1ccccc1 [TH1797]
- IC50 ([3]; Homo sapiens, NCI-H460): 40000 nM

Structure (SMILES): CC[C@@]1(O)C(=O)OCc2c1c([N+](=O)[O-])c1n(c2=O)Cc2c-1nc1cccc([N+](=O)[O-])c1c2Br [TH1636]
- IC50 ([3]; Homo sapiens, NCI-H460): 6200 nM
